Experimental data as given in US8134015B2, “Compound inhibiting in vivo phosphorous transport and medicine containing the same” (Kyowa Hakko Kirin Co., Ltd., priority 2003, dated 2012).
Where a name gives a salt, the structure may show the parent alone.

Molecular target: T1, rat NaPi-2b (Rattus norvegicus, UniProt Q9JJ09)
T1 construct: expressed in transfected cells; host or cells: Xenopus oocytes injected with cRNA
T1 sequence (Q9JJ09 1-695): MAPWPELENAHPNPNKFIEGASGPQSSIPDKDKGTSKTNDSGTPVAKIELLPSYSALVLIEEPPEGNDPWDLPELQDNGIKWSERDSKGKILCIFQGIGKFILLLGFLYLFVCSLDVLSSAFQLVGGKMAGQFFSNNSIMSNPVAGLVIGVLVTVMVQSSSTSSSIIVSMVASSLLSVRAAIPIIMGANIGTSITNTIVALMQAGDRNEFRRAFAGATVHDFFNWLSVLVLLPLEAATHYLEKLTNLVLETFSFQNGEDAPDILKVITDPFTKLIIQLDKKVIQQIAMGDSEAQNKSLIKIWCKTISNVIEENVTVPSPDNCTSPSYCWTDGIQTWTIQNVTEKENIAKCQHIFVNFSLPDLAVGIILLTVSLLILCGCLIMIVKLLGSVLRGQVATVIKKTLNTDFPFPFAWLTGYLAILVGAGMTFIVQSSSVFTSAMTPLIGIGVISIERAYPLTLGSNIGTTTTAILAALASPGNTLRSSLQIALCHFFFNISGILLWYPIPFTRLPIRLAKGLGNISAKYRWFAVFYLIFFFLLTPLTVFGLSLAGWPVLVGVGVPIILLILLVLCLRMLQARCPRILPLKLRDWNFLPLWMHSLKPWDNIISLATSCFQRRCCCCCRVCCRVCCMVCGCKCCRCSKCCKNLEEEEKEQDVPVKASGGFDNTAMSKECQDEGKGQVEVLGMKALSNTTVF
Experiment: Sodium-dependent phosphate uptake of Xenopus oocytes which expressed NaPi-2b (32P)
Type: cell-based
Conditions: Xenopus oocytes expressing rat NaPi-2b, 32P radioactive phosphorus; read-out: IC50 (phosphate uptake inhibitory activity)
In short: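 Rat NaPi-2b cloned from small-intestine cDNA; cRNA injected into Xenopus oocytes, expression for 2 days. Phosphate uptake inhibition measured with 32P; percent inhibition at 300 μM and 100 μM read from the same inhibition curve.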

| Compound | IC50 [µM] |
| --- | --- |
| O=C(Nc1ccc(Br)cc1C(=O)N/N=C/c1ccc(Cl)c(C(F)(F)F)c1)c1ccc(CN2CCC(N3CCCCC3)CC2)cc1 [Compound 313, 4-[1,4′]Bipiperidinyl-1′-ylmethyl-N-[4-bromo-2-(4-chloro-3-trifluoromethyl-benzylidene-hydrazinocarbonyl)-phenyl]-benzamide] | 1.24 |
| CCN(CC)CCN(C)Cc1cccc(C(=O)Nc2ccc(OCCCCF)cc2C(=O)N/N=C/c2ccc(OC)cc2)c1 [Compound 1061, 3-{[(2-Diethylamino-ethyl)-methyl-amino]-methyl}-N-[4-(4-fluoro-butoxy)-2-(4-methoxy-benzylidene-hydrazinocarbonyl)-phenyl]-benzamide] | 1.99 |
| CC(O)CN(Cc1cccc(C(=O)Nc2sccc2C(=O)N/N=C/c2ccc(F)cc2)c1)CC(C)O (stereo not drawn) [Compound 672, 3-{[Bis-(2-hydroxy-propyl)-amino]-methyl}-N-[3-(4-fluoro-benzylidene-hydrazinocarbonyl)-thiophen-2-yl]-benzamide] | 31.2 |
| O=C(Nc1ccc(Br)cc1C(=O)N/N=C/c1ccc(F)cc1)c1ccncc1 [Compound 167, N-[4-Bromo-2-(4-fluoro-benzylidene-hydrazinocarbonyl)-phenyl]-isonicotinamide] | 30.2 |
| Cc1cccc(/C=N/NC(=O)c2cc(Br)ccc2NC(=O)c2ccc(CSCCCO)cc2)c1 [Compound 275, N-[4-Bromo-2-(3-methyl-benzylidene-hydrazinocarbonyl)-phenyl]-4-(3-hydroxy-propylsulfanylmethyl)-benzamide] | 1.73 |
| O=C(Nc1ccc(Br)cc1C(=O)N/N=C/c1cccc(F)c1)c1ccc(CN2CCC(CO)CC2)cc1 [Compound 336, N-[4-Bromo-2-(3-fluoro-benzylidene-hydrazinocarbonyl)-phenyl]-4-(4-hydroxymethyl-piperidin-1-ylmethyl)-benzamide] | 16.6 |
| CCN(CC)CCN(C)Cc1ccc(C(=O)Nc2ccc(Br)cc2C(=O)NN=Cc2ccc(OC)cc2)cc1 [Compound 290, N-[4-Bromo-2-(4-methoxy-benzylidene-hydrazinocarbonyl)-phenyl]-4-{[(2-diethylamino-ethyl)-methyl-amino]-methyl}-benzamide] | 3.25 |
| O=C(Nc1ccccc1C(=O)N/N=C/c1ccc(F)cc1)c1ccccn1 [Compound 506, Pyridin-2-carboxylic acid [2-(4-fluoro-benzylidene-hydrazinocarbonyl)-phenyl]-amide] | 19.5 |
| O=C(Nc1ccc(Br)cc1C(=O)N/N=C/c1ccc(F)cc1)c1ccc(CN2CCC(CO)CC2)cc1 [Compound 335, N-[4-Bromo-2-(4-fluoro-benzylidene-hydrazinocarbonyl)-phenyl]-4-(4-hydroxymethyl-piperidin-1-ylmethyl)-benzamide] | 5.86 |
| CCN(CCO)Cc1ccc(C(=O)Nc2ccc(Cl)cc2C(=O)N/N=C/c2cccc(O)c2)cc1 [Compound 440, N-[4-Chloro-2-(3-hydroxy-benzylidene-hydrazinocarbonyl)-phenyl]-4-{[ethyl-(2-hydroxy-ethyl)-amino]-methyl}-benzamide] | 32.4 |
| COc1ccc(/C=N/NC(=O)c2c(C)csc2NC(=O)c2cccc(CN3CCN(CCO)CC3)c2)cc1 [Compound 580, 3-[4-(2-Hydroxy-ethyl)-piperazin-1-ylmethyl]-N-[3-(4-methoxy-benzylidene-hydrazinocarbonyl)-4-methyl-thiophen-2-yl]-benzamide] | < 3 |
| CCN(CC)CCN(C)Cc1cccc(C(=O)Nc2ccc(Cl)cc2C(=O)N/N=C/c2ccc(O)cc2)c1 [Compound 388, N-[4-Chloro-2-(4-hydroxy-benzylidene-hydrazinocarbonyl)-phenyl]-3-{[(2-diethylamino-ethyl)-methyl-amino]-methyl}-benzamide] | 19.7 |
| O=C(Nc1ccccc1C(=O)N/N=C/c1ccc(O)cc1)c1cccc(F)c1 [Compound 86, 3-Fluoro-N-[2-(4-hydroxy-benzylidene-hydrazinocarbonyl)-phenyl]-benzamide] | 11.4 |
| CN(CCO)Cc1cccc(C(=O)Nc2ccc(Cl)cc2C(=O)N/N=C/c2cccc(O)c2)c1 [Compound 402, N-[4-Chloro-2-(3-hydroxy-benzylidene-hydrazinocarbonyl)-phenyl]-3-{[(2-hydroxy-ethyl)-methyl-amino]-methyl}-benzamide] | 14.1 |
| Cc1csc(NC(=O)c2cccc(CSc3nc[nH]n3)c2)c1C(=O)N/N=C/c1ccc(Cl)c(C(F)(F)F)c1 [Compound 555, N-[3-(4-Chloro-3-trifluoromethyl-benzylidene-hydrazinocarbonyl)-4-methyl-thiophen-2-yl]-3-(1H-[1,2,4]triazol-3-ylsulfanylmethyl)-benzamide] | < 3 |
| O=C(Nc1ccc(Br)cc1C(=O)N/N=C/c1ccc(Cl)c(C(F)(F)F)c1)c1ccc(CN2CCC(CO)CC2)cc1 [Compound 337, N-[4-Bromo-2-(4-chloro-3-trifluoromethyl-benzylidene-hydrazinocarbonyl)-phenyl]-4-(4-hydroxymethyl-piperidin-1-ylmethyl)-benzamide] | 1.39 |
| COc1ccc(C(=O)Nc2ccc(Br)cc2C(=O)N/N=C/c2ccc(O)cc2)cc1OC [Compound 64, N-[4-Bromo-2-(4-hydroxy-benzylidene-hydrazinocarbonyl)-phenyl]-3,4-dimethoxy-benzamide] | 3.77 |
| O=C(Nc1ccc(Br)cc1C(=O)N/N=C/c1ccc(Cl)c(C(F)(F)F)c1)c1ccc(CNCCCN(CCO)CCO)cc1 [Compound 302, 4-({3-[Bis-(2-hydroxy-ethyl)-amino]-propylamino}-methyl)-N-[4-bromo-2-(4-chloro-3-trifluoromethyl-benzylidene-hydrazinocarbonyl)-phenyl]-benzamide] | 1.12 |

Other lines, results leading:

| IC50 [µM] | Compound |
| --- | --- |
| < 1 | CC(O)CN(Cc1cccc(C(=O)Nc2cc3ccccc3cc2C(=O)N/N=C/c2ccc(Cl)c(C(F)(F)F)c2)c1)CC(C)O (stereo not drawn) [Compound 962, 3-{[Bis-(2-hydroxy-propyl)-amino]-methyl}-N-[3-(4-chloro-3-trifluoromethyl-benzylidene-hydrazinocarbonyl)-naphthalen-2-yl]-benzamide] |
| 1.75 | CCN(CC)CCN(CCN(CC)CC)Cc1cccc(C(=O)Nc2sc3c(c2C(=O)N/N=C/c2ccc(Cl)c(C(F)(F)F)c2)CCCC3)c1 [Compound 855, 3-{[Bis-(2-diethylamino-ethyl)-amino]-methyl}-N-[3-(4-chloro-3-trifluoromethyl-benzylidene-hydrazinocarbonyl)-4,5,6,7-tetrahydro-benzo[b]thiophen-2-yl]-benzamide; hydrochloride] |
| < 1 | O=C(Nc1ccc(N2CCCC2)cc1C(=O)N/N=C/c1ccc(Cl)c(C(F)(F)F)c1)c1cccc(CSCCO)c1 [Compound 920, N-[2-(4-Chloro-3-trifluoromethyl-benzylidene-hydrazinocarbonyl)-4-pyrrolidin-1-yl-phenyl]-3-(2-hydroxy-ethylsulfanylmethyl)-benzamide] |
| < 3 | Cc1ccc(/C=N/NC(=O)c2cc(Br)ccc2NC(=O)c2cccc(CS(=O)(=O)CCO)c2)cc1 [Compound 676, N-[4-Bromo-2-(4-methyl-benzylidene-hydrazinocarbonyl)-phenyl]-3-(2-hydroxy-ethanesulfonylmethyl)-benzamide] |
| < 0.3 | CCN(CC)CCSCc1cccc(C(=O)Nc2ccc(N3CCCCC3)cc2C(=O)N/N=C/c2ccc(F)cc2)c1 [Compound 877, 3-(2-Diethylamino-ethylsulfanylmethyl)-N-[2-(4-fluoro-benzylidene-hydrazinocarbonyl)-4-piperidin-1-yl-phenyl]-benzamide] |
| 1.97 | CC(O)CN(Cc1cccc(C(=O)Nc2sc3c(c2C(=O)N/N=C/c2ccc(Cl)c(C(F)(F)F)c2)CCC3)c1)CC(C)O (stereo not drawn) [Compound 808, 3-{[Bis-(2-hydroxy-propyl)-amino]-methyl}-N-[3-(4-chloro-3-trifluoromethyl-benzylidene-hydrazinocarbonyl)-5,6-dihydro-4H-cyclopenta[b]thiophen-2-yl]-benzamide] |
| 1.33 | COc1ccc(/C=N/NC(=O)c2cc(F)ccc2NC(=O)c2cccc(CN(CC(C)O)CC(C)O)c2)cc1 (stereo not drawn) [Compound 854, 3-{[Bis-(2-hydroxy-propyl)-amino]-methyl}-N-[4-fluoro-2-(4-methoxy-benzylidene-hydrazinocarbonyl)-phenyl]-benzamide; hydrochloride] |
| < 1 | COc1ccc(/C=N/NC(=O)c2cc3ccccc3cc2NC(=O)c2cccc(CN(CC(C)O)CC(C)O)c2)cc1 (stereo not drawn) [Compound 963, 3-{[Bis-(2-hydroxy-propyl)-amino]-methyl}-N-[3-(4-methoxy-benzylidene-hydrazinocarbonyl)-naphthalen-2-yl]-benzamide] |
| 12.6 | CC(O)CN(Cc1cccc(C(=O)Nc2cscc2C(=O)N/N=C/c2cccc(F)c2)c1)CC(C)O (stereo not drawn) [Compound 974, 3-{[Bis-(2-hydroxy-propyl)-amino]-methyl}-N-[4-(3-fluoro-benzylidene-hydrazinocarbonyl)-thiophen-3-yl]-benzamide] |
